# US10800784B2, “Nitrogen-containing heterocyclic amide compound and pharmaceutical use thereof” (Japan Tobacco Inc., priority 2018, dated 2020)
# Experiments:
# human PDHK2 (hPDHK2) = human PDHK2 (hPDHK2) (Homo sapiens (Human), UniProt Q15119); assay: Inhibitory action of PDHK2 activity in vitro (residual PDH activity after PDHK reaction); type: biochemical; conditions: for IC50: PDH/hPDHK2 complex solution, PDHK reaction at room temperature for 45 min, NADH absorbance at 340 nm, read-out: kPDK2 IC50; for hPDHK2 inhibitory rate at the lowest concentration of the test compound: lowest concentration of the test compound in the assay (<3 nmol/L), shown when IC50 value could not be calculated
# Outline: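 Indirect assay: FLAG-tagged hPDHK2 (0.5 μg/mL) precomplexed overnight at 4 °C with PDH (0.025 U/mL), then kinase reaction with compound and ATP 45 min at room temperature, pH 7.0 MOPS buffer. Residual PDH activity measured after 90 min with pyruvate, CoA, NAD, TPP as NADH absorbance at 340 nm, corrected for compound effect on PDH-only blank.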
# human PDHK1 (hPDHK1) = human PDHK1 (hPDHK1) (Homo sapiens (Human), UniProt Q15118); assay: Inhibitory action of PDHK1 activity in vitro (residual PDH activity after PDHK reaction); type: biochemical; conditions: for IC50: PDH/hPDHK1 complex solution, PDHK reaction at room temperature for 45 min, NADH absorbance at 340 nm, read-out: hPDK1 IC50; for inhibition at 0.003 µM: at 3 nmol/L, shown when IC50 value could not be calculated, read-out: hPDHK1 inhibitory rate at the lowest concentration of the test compound
# Sequence of human PDHK1 (hPDHK1) (Q15118 29-436): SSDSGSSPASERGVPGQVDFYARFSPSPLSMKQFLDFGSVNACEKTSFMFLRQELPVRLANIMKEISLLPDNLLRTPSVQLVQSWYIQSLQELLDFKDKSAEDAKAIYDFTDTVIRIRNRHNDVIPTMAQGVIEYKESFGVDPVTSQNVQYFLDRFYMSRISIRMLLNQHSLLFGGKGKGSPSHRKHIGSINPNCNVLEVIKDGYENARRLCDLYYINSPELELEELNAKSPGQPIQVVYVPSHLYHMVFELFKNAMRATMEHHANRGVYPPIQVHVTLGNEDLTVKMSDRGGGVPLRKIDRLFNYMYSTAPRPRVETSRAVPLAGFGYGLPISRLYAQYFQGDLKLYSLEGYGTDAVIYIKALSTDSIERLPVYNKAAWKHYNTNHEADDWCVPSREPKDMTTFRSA
# Outline: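 N-FLAG hPDHK1 (E. coli-expressed, 0.5 μg/mL) precomplexed overnight at 4 °C with porcine heart PDH (0.025 U/mL), then reacted 45 min at room temperature with compound and ATP (0.353 μmol/L as added) in MOPS pH 7.0 buffer. Residual PDH activity after 90 min with pyruvate, CoA, NAD, TPP read as NADH at 340 nm.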
IC50 (human PDHK2 (hPDHK2)),IC50 (human PDHK1 (hPDHK1)),inhibition at 0.003 µM (human PDHK1 (hPDHK1)),hPDHK2 inhibitory rate at the lowest concentration of the test compound (human PDHK2 (hPDHK2)),SMILES
10 nM,10 nM,,,C[C@H]1CN(C(=O)c2cnc(-c3ccccc3)nc2)Cc2cnc([C@@](C)(O)C(F)(F)F)n21 [Example 56]
10 nM,11 nM,,,C[C@H]1CN(C(=O)c2ccc(=O)n(-c3ccc(F)cc3)c2)Cc2cnc([C@@](C)(O)C(F)(F)F)n21 [Example 57]
4 nM,3 nM,,,C[C@H]1CN(C(=O)c2ccc(F)c(-c3ccc(C#N)cn3)c2)Cc2cnc([C@@](C)(O)C(F)(F)F)n21 [Example 58]
3 nM,4 nM,,,Cc1cc(-c2ccc(F)cc2C#N)ncc1C(=O)N1Cc2cnc([C@@](C)(O)C(F)(F)F)n2[C@@H](C)C1 [Example 59]
9 nM,14 nM,,,C[C@H]1CN(C(=O)C2CCC(n3cccn3)CC2)Cc2cnc([C@@](C)(O)C(F)(F)F)n21 (stereo partly drawn) [Example 60]
5 nM,3 nM,,,C[C@H]1CN(C(=O)c2cc(-c3ccc(F)cc3C#N)nn2C)Cc2cnc([C@@](C)(O)C(F)(F)F)n21 [Example 61]
4 nM,3 nM,,,C[C@H]1CN(C(=O)c2ccnc(-c3ccc(C#N)cc3F)c2)Cc2cnc([C@@](C)(O)C(F)(F)F)n21 [Example 62]
7 nM,5 nM,,,Cc1cc(C#N)ccc1-c1cc(C(=O)N2Cc3cnc([C@@](C)(O)C(F)(F)F)n3[C@@H](C)C2)ccn1 [Example 63]
7 nM,5 nM,,,C[C@H]1CN(C(=O)c2ccc(F)c(-c3ccnn3C)c2)Cc2cnc([C@@](C)(O)C(F)(F)F)n21 [Example 64]
5 nM,4 nM,,,Cc1c(C(=O)N2Cc3cnc([C@@](C)(O)C(F)(F)F)n3[C@@H](C)C2)ccnc1-c1ccc(C#N)cc1 [Example 65]
6 nM,4 nM,,,C[C@H]1CN(C(=O)c2cc(-c3ccc(Cl)cn3)nn2C)Cc2cnc([C@@](C)(O)C(F)(F)F)n21 [Example 66]
7 nM,5 nM,,,C[C@H]1CN(C(=O)c2ccnc(-c3ccc(C#N)cc3)c2)Cc2cnc([C@@](C)(O)C(F)(F)F)n21 [Example 67]
6 nM,4 nM,,,"C[C@H]1CN(C(=O)c2cc(-c3ccc(C#N)cc3)ncc2F)Cc2cnc([C@@](C)(O)C(F)(F)F)n21 [Example 68, 4-(5-fluoro-4-((S)-5-methyl-3-((R)-1,1,1-trifluoro-2-hydroxypropan-2-yl)-5,6,7,8-tetrahydroimidazo[1,5-a]pyrazine-7-carbonyl)pyridin-2-yl)benzonitrile]"
8 nM,5 nM,,,C[C@H]1CN(C(=O)c2ccc(F)c(-c3ncc(F)cc3C#N)c2)Cc2cnc([C@@](C)(O)C(F)(F)F)n21 [Example 69]
6 nM,3 nM,,,C[C@H]1CN(C(=O)c2ccc(F)c(-c3ccc(F)cn3)c2)Cc2cnc([C@@](C)(O)C(F)(F)F)n21 [Example 70]
7 nM,4 nM,,,C[C@H]1CN(C(=O)c2cncc(-c3ccc(C#N)cc3F)c2)Cc2cnc([C@@](C)(O)C(F)(F)F)n21 [Example 71]
9 nM,7 nM,,,C[C@H]1CN(C(=O)c2cncc(-c3ccc(F)cc3C#N)c2)Cc2cnc([C@@](C)(O)C(F)(F)F)n21 [Example 72]
7 nM,6 nM,,,"C[C@H]1CN(C(=O)c2cc(-c3ccc(C#N)cn3)nn2C)Cc2cnc([C@@](C)(O)C(F)(F)F)n21 [Example 73, 6-(1-methyl-5-((S)-5-methyl-3-((R)-1,1,1-trifluoro-2-hydroxypropan-2-yl)-5,6,7,8-tetrahydroimidazo[1,5-a]pyrazine-7-carbonyl)-1H-pyrazol-3-yl)nicotinonitrile]"
11 nM,6 nM,,,C[C@H]1CN(C(=O)c2ccc(C#N)c(-n3cccn3)c2)Cc2cnc([C@@](C)(O)C(F)(F)F)n21 [Example 74]
11 nM,6 nM,,,Cc1cc(C#N)ccc1-c1cc(C(=O)N2Cc3cnc([C@@](C)(O)C(F)(F)F)n3[C@@H](C)C2)n(C)n1 [Example 75]
9 nM,6 nM,,,Cc1c(-c2ccc(C#N)cc2)nn(C)c1C(=O)N1Cc2cnc([C@@](C)(O)C(F)(F)F)n2[C@@H](C)C1 [Example 76]
9 nM,6 nM,,,C[C@H]1CN(C(=O)c2ccc(C#N)c(-c3ccc(F)cn3)c2)Cc2cnc([C@@](C)(O)C(F)(F)F)n21 [Example 77]
7 nM,4 nM,,,C[C@H]1CN(C(=O)c2ccnc(-c3ccc(C#N)cc3)c2F)Cc2cnc([C@@](C)(O)C(F)(F)F)n21 [Example 78]
8 nM,5 nM,,,C[C@H]1CN(C(=O)c2cccc(-c3ccc(C#N)cn3)c2)Cc2cnc([C@@](C)(O)C(F)(F)F)n21 [Example 79]
6 nM,3 nM,,,C[C@H]1CN(C(=O)c2cncc(-c3ccc(F)cc3)c2)Cc2cnc([C@@](C)(O)C(F)(F)F)n21 [Example 80]

IC50 (human PDHK2 (hPDHK2)),IC50 (human PDHK1 (hPDHK1)),inhibition at 0.003 µM (human PDHK1 (hPDHK1)),hPDHK2 inhibitory rate at the lowest concentration of the test compound (human PDHK2 (hPDHK2)),SMILES
7 nM,5 nM,,,C[C@H]1CN(C(=O)c2cc(-c3ccc(F)cn3)nn2C)Cc2cnc([C@@](C)(O)C(F)(F)F)n21 [Example 81]
7 nM,5 nM,,,C[C@H]1CN(C(=O)c2ccc(F)c(-c3ccncc3F)c2)Cc2cnc([C@@](C)(O)C(F)(F)F)n21 [Example 82]
11 nM,5 nM,,,C[C@H]1CN(C(=O)c2ccc(F)c(-c3cncc(F)c3)c2)Cc2cnc([C@@](C)(O)C(F)(F)F)n21 [Example 83]
11 nM,5 nM,,,C[C@H]1CN(C(=O)c2ccc(F)c(-c3ccncc3C#N)c2)Cc2cnc([C@@](C)(O)C(F)(F)F)n21 [Example 84]
6 nM,< 3 nM,49%,,C[C@H]1CN(C(=O)c2ccc(C#N)c(-n3cc(Cl)cn3)c2)Cc2cnc([C@@](C)(O)C(F)(F)F)n21 [Example 85]
4 nM,< 3 nM,52%,,C[C@H]1CN(C(=O)c2cc(-c3ccc(F)cc3)ncc2F)Cc2cnc([C@@](C)(O)C(F)(F)F)n21 [Example 86]
< 3 nM,< 3 nM,66%,53%,C[C@H]1CN(C(=O)c2ccnc(-c3ccc(F)cc3)c2F)Cc2cnc([C@@](C)(O)C(F)(F)F)n21 [Example 87]
4 nM,3 nM,,,C[C@H]1CN(C(=O)c2ccnc(-c3ccc(F)cc3F)c2)Cc2cnc([C@@](C)(O)C(F)(F)F)n21 [Example 88]
19 nM,20 nM,,,C[C@H]1CN(C(=O)C2CCC(n3cc(Cl)cn3)CC2)Cc2cnc([C@@](C)(O)C(F)(F)F)n21 (stereo partly drawn) [Example 89]
45 nM,66 nM,,,C[C@H]1CN(C(=O)C2(C)CN(c3ccc(F)cn3)C2)Cc2cnc([C@@](C)(O)C(F)(F)F)n21 [Example 90]
28 nM,49 nM,,,C[C@H]1CN(C(=O)C2(C)CN(C3CC(F)(F)C3)C2)Cc2cnc([C@@](C)(O)C(F)(F)F)n21 [Example 91]
23 nM,27 nM,,,C[C@H]1CN(C(=O)[C@H]2CCN(c3ccc(C#N)cn3)C2)Cc2cnc([C@@](C)(O)C(F)(F)F)n21 [Example 92]
11 nM,8 nM,,,C[C@H]1CN(C(=O)c2ccc(N3CCN(C)CC3)cc2)Cc2cnc([C@@](C)(O)C(F)(F)F)n21 [Example 93]
24 nM,40 nM,,,C[C@H]1CN(C(=O)c2cnc(C3CC3)nc2)Cc2cnc([C@@](C)(O)C(F)(F)F)n21 [Example 94]
15 nM,6 nM,,,C[C@H]1CN(C(=O)c2ccnc(N3CCC(F)(F)CC3)c2)Cc2cnc([C@@](C)(O)C(F)(F)F)n21 [Example 95]
8 nM,8 nM,,,C[C@H]1CN(C(=O)c2ccnc(C3CC3)c2)Cc2cnc([C@@](C)(O)C(F)(F)F)n21 [Example 96]
26 nM,63 nM,,,C[C@H]1CN(C(=O)c2ncncc2-c2ccc(F)cc2)Cc2cnc([C@@](C)(O)C(F)(F)F)n21 [Example 97]
6 nM,6 nM,,,C[C@H]1CN(C(=O)c2cc(C3CC3)nc(C(F)(F)F)c2)Cc2cnc([C@@](C)(O)C(F)(F)F)n21 [Example 98]
12 nM,8 nM,,,C[C@H]1CN(C(=O)c2cc3n(n2)CCO3)Cc2onc([C@@](C)(O)C(F)(F)F)c21 [Example 99]
5 nM,4 nM,,,C[C@H]1CN(C(=O)c2cc3n(n2)CCC3)Cc2onc([C@@](C)(O)C(F)(F)F)c21 [Example 100]
4 nM,< 3 nM,69%,,C[C@H]1CN(C(=O)c2n[nH]c3ccccc23)Cc2onc([C@@](C)(O)C(F)(F)F)c21 [Example 101]
4 nM,4 nM,,,C[C@H]1CN(C(=O)c2cccc3[nH]ncc23)Cc2onc([C@@](C)(O)C(F)(F)F)c21 [Example 102]
< 3 nM,< 3 nM,67%,66%,C[C@H]1CN(C(=O)c2n[nH]c3c2CCC(C)(C)C3)Cc2onc([C@@](C)(O)C(F)(F)F)c21 [Example 103]
6 nM,4 nM,,,C[C@H]1CN(C(=O)c2n[nH]c3ccc(F)cc23)Cc2onc([C@@](C)(O)C(F)(F)F)c21 [Example 104]
